Assays:
Type in all cases: cell-based
[1] = system: human liver cell organoids; assay: Culturing liver cell organoids in absence of Matrigel; number of viable cells (CellTiter-Glo 3D); settings: for number of viable cells, higher than control group: day 6 after seeding
Protocol: Human liver cell organoids, established from primary human liver cells, were supplemented with TrypLE Express (Thermo Fisher Scientific) and incubated at 37° C. for 5 minutes to dissociate them into single cells.
The cells were then collected and suspended in proliferation medium separately supplemented with 2, 5, 10, 20, or 50 μM TDI-011536 (CAS No. 2687970-96-1), and […] seeded into an ultra-low attachment 96-well plate at 2,000 cells/well. The preferred seeding density is 2,000 to 4,000 cells/well. In addition, cells in proliferation medium supplemented with no TDI-011536 were prepared as a control.
The proliferation medium was a medium consisting of a basal medium (Advanced DMEM/F-12 medium, 10 mM HEPES, 2 mM GlutaMAX, 100 U penicillin, 100 μg/mL streptomycin) supplemented with 10% afamin-Wnt-3A conditioned medium, 2% R-spondin 1 conditioned medium, 2% Noggin conditioned medium, and 20 ng/ml Oncostatin M.
On day 6 after seeding, the number of viable cells in the human liver cell organoids was measured using a commercially available kit (product name “CellTiter-Glo 3D,” Promega Corporation).

[2] = system: primary human liver cells (EpCAM-negative); assay: Establishment of liver cell organoids in absence of Matrigel; settings: for establishment of human liver cell organoids: proliferation medium with both 20 μM TDI-011536 and 20 ng/ml Oncostatin M
Protocol: Frozen primary human liver cells were suspended in Advanced DMEM/F-12 medium and thawed. Two types of primary human liver cells, Line 1 and Line 2, were used.
Subsequently, each of the thawed primary human liver cells was stained with an APC-labeled mouse anti-human EpCAM antibody, and EpCAM-negative cells were collected using a cell sorter. The collected cells were then suspended in proliferation medium supplemented with 20 μM TDI-011536 and seeded into an ultra-low attachment 96-well plate at 3,000 to 4,000 cells/well. The cells were then cultured to obtain liver cell organoids. In addition, for comparison, cells were also prepared using proliferation medium supplemented with no TDI-011536 or no Oncostatin M.
The passaging of liver cell organoids in the absence of Matrigel (registered trademark) was performed as follows. First, calcium ions and magnesium ions were chelated using 1 mM EDTA/phosphate buffered saline (PBS). Subsequently, the liver cell organoids were supplemented with TrypLE Express (Thermo Fisher Scientific) and incubated at 37° C. for 5 minutes to dissociate them into single cells.
The collected cells were then suspended in proliferation medium supplemented with 20 μM TDI-011536 and seeded into an ultra-low attachment 96-well plate at 2,000 cells/well.
The scale bar is 500 μm. FIG. 24 presents graphs showing the results of measuring changes in cell proliferation over time. In FIG. 24, the vertical axes of the graphs represent cell proliferation (fold increase), and the horizontal axes indicate the number of days of culture. In FIGS. 23 and 24, “OSM” represents Oncostatin M, and “Lats IN” represents the LATS kinase inhibitor (TDI-011536).

[3] = system: human large intestine-derived organoid; assay: Culture of organoids in absence of Matrigel with LATS kinase inhibitor; cell number by ATP (CellTiter-Glo 3D); settings: both Lats-IN (10 μM) and MYF01-37 added
Protocol: (§1) In this experimental example, a human small intestine-derived organoid and human large intestine-derived organoid established in the presence of Matrigel (registered trademark) were cultured in the absence of Matrigel (registered trademark) and in the presence of a LATS kinase inhibitor (final concentration: 10 μM), and their dynamics were observed. The procedure was the same as in Experimental Example 1, except that each organoid was cultured in the absence of Matrigel (registered trademark).
The lower left panel of FIG. 3 is a photograph of a control (Ctrl) human large intestine-derived organoid cultured in the absence of Lats-IN, and the lower center panel of FIG. 3 is a photograph of a human large intestine-derived organoid cultured in the presence of Lats-IN. The scale bar is 100 μm. The lower right panel of FIG. 3 is a graph showing the results of measuring cell number in the human large intestine-derived organoids cultured in the presence of the control (Ctrl) and Lats-IN. The vertical axis of the graph represents luminescence intensity (relative value) indicating the amount of ATP present. […]
(§2) FIG. 8 presents graphs showing the results of measuring the proliferation of the human small intestine-derived and human large intestine-derived organoids in the absence of Lats-IN (Ctrl), in the presence of Lats-IN (Lats-IN), in the presence of Lats-IN and MYF01-37 (Lats-IN+MYF), and in the presence of MYF01-37 (MYF). The cell proliferation was measured by measuring ATP using a commercially available kit (product name “CellTiter-Glo 3D,” Promega Corporation). The vertical axis of the graph represents luminescence intensity (relative value) indicating the amount of ATP present. […]
(§3) FIG. 26 presents graphs showing the results of measuring cell number in each organoid after 6 days of culture by measuring ATP using a commercially available kit (product name “CellTiter-Glo 3D,” Promega Corporation). The vertical axis of the graph represents luminescence intensity (relative value) indicating the amount of ATP present.

[4] = system: human small intestine-derived organoid; assay: as above; settings: both Lats-IN (10 μM) and MYF01-37 added
Protocol: as §1
The upper left panel of FIG. 3 is a photograph of a control (Ctrl) human small intestine-derived organoid cultured in the absence of Lats-IN, and the upper center panel of FIG. 3 is a photograph of a human small intestine-derived organoid cultured in the presence of Lats-IN. The scale bar is 100 μm. […] The vertical axis of the graph represents luminescence intensity (relative value) indicating the amount of ATP present. […]
as §2, §3

Molecule	number of viable cells, higher than control group ([1]; 20 μM) [fold]	number of viable cells, higher than control group ([1]; 50 μM) [fold]	number of viable cells (words, FIG. 22) ([1]; adding the LATS kinase inhibitor)	duration for which established organoids could be cultured ([2]; 20 μM TDI-011536 and Oncostatin M)	establishment of human liver cell organoids [2]	cell proliferation (ATP luminescence) when TEAD inhibited [3]	cell proliferation (ATP luminescence) when TEAD inhibited [4]
O=C(N=c1scc(CO)n1Cc1ccccc1)c1c[nH]c2ncccc12 [TDI-011536]	16	17	increase in the number of viable cells was observed	at least two months	successfully established		
C=CC(=O)N1CCC(C)(Nc2cccc(C(F)(F)F)c2)C1 (centres unmarked) [MYF01-37]						inhibited	inhibited
Oncostatin M: cytokine of a cytokine family that binds to gp130 (protein, UniProt P13725 26-221, looked up) Oncostatin-M: AAIGSCSKEYRVLLGQLQKQTDLMQDTSRLLDPYIRIQGLDVPKLREHCRERPGAFPSEETLRGLGRRGFLQTLNATLGCVLHRLADLEQRLPKAQDLERSGLNIEDLEKLQMARPNILGLRNNIYCMAQLLDNSDTAEPTKAGRGASQPPTPTPASDAFQRKLEGCRFLHGYHRFMHSVGRVFSKWGESPNRSRR					successfully established		

From patent publication US20250283049A1, “AGENT FOR CULTURING ORGANOID IN ABSENCE OF EXTRACELLULAR MATRIX” (KEIO UNIVERSITY, priority 2022, published 2025)
